Results: ChEMBL document CHEMBL1136580, “Enterolosaponins A and B, novel triterpene bisdesmosides from Enterolobium contortisiliquum, and evaluation for their macrophage-oriented cytotoxic activity” (Bioorg Med Chem Lett, 2003)

Assay: Compound was tested for its cytotoxic activity against BACI.2F5 mouse macrophages
Conditions: read-out: LD50 (the source's name)

**Q.** With `CC(=O)N[C@@H]1[C@H](O[C@H]2CC[C@]3(C)[C@H]4CC=C5[C@@H]6CC(C)(C)[C@@H](OC(=O)/C=C/c7ccccc7)C[C@]6(C(=O)O[C@@H]6O[C@@H](CO)[C@@H](O)[C@H](O)[C@@H]6O[C@@H]6O[C@@H](C)[C@H](O[C@@H]7O[C@@H](CO)[C@H](O)[C@H]7O)[C@H](O[C@@H]7O[C@@H](CO)[C@@H](O)[C@H](O)[C@@H]7O)[C@H]6O)CC[C@@]5(C)[C@]4(C)CC[C@H]3C2(C)C)O[C@@H](CO[C@@H]2OC[C@H](O)[C@@H](O)[C@@H]2O[C@@H]2OC[C@@H](O)[C@H](O)[C@@H]2O)[C@@H](O)[C@@H]1O` as the compound, how does the CC50 read?
**A.** ≤ 3000 nM
